Assays:
[1] = from CCc1nn(C)c(Cc2cccnc2-c2ccc(F)cc2COc2cc(Br)cnc2N)c1Br; cc_pd bond; 12-membered ring; B2pin2/Pd(OAc)2/cataCXium A/CsF; MeOH/H2O; 17.0 mM; 80.0 °C; 5.0 h
[2] = tested on: TPM3-NTRK1-wt IC50 / primary target (e.g. CD74-ROS1-wt) IC50, Ba/F3 cells; test: Cell assay TRKA selectivity (TRKA potency divided by primary target potency); type: cell-based
Method in brief: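 IL-3-independent Ba/F3 lines stably expressing TPM3-TRKA or the primary fusion (e.g. CD74-ROS1 wt) were exposed to 3-fold compound dilutions for 72 h. Viability was read by CellTiter-Glo luminescence, with IC50 from four-parameter logistic fit. Selectivity is TPM3-NTRK1 IC50 divided by primary-target IC50, binned A (>30-fold) to D (<1).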

[3] = tested on: ROS1-positive NSCLC; conditions: treatment of ROS1-positive NSCLC; cited from earlier work

Compound | ring closure, yield after HPLC [1] [%] | TPM3-NTRK1-wt/CD74-ROS1-G2032R ([2]; TRKA selectivity ratio: TPM3-NTRK1-wt IC50 / CD74-ROS1-G2032R IC50, Ba/F3 cells) | TPM3-NTRK1-wt/CD74-ROS1-wt ([2]; TRKA selectivity ratio: TPM3-NTRK1-wt IC50 / CD74-ROS1-wt IC50, Ba/F3 cells) | TPM3-NTRK1-wt/EML4-ALK-L1196M-G1202R ([2]; TRKA selectivity ratio: TPM3-NTRK1-wt IC50 / EML4-ALK-L1196M-G1202R IC50, Ba/F3 cells) | TPM3-NTRK1-wt/EML4-ALK-wt ([2]; TRKA selectivity ratio: TPM3-NTRK1-wt IC50 / EML4-ALK-wt IC50, Ba/F3 cells) | median progression-free survival [3] | overall response rate [3]
CCc1nn(C)c2c1-c1cnc(N)c(c1)OCc1cc(F)ccc1-c1ncccc1C2 [Example 170, 3-ethyl-17-fluoro-5-methyl-21-oxa-4,5,12,24-tetraazapentacyclo[20.3.1.0^2,^6.0^8,^13.0^14,^19]hexacosa-1(25),2(6),3,8(13),9,11,14,16,18,22(26),23-undecaen-23-amine] | 3.3 | A (bin A for very high selectivity, ratio>30-fold) | A (bin A for very high selectivity, ratio>30-fold) | B (bin B for high selectivity, ratio>10-fold) | A (bin A for very high selectivity, ratio>30-fold) | – | –
C[C@@H](Oc1cc(-c2cnn(C3CCNCC3)c2)cnc1N)c1c(Cl)ccc(F)c1Cl [Crizotinib, crizotinib] | – | – | – | – | – | 9-19 months | 60-80%

Reference: US11667649B2, “Heteroaromatic macrocyclic ether chemotherapeutic agents” (Nuvalent, Inc., priority 2020, dated 2023)
